According to US20070167492A1, “Molluscicidal agents” (priority 2003, published 2007):
“Also recorded” adds a separate entry of the source.

Key:
Type in all cases: in vivo
[1] = system: Deroceras reticulatum (grey field slug); assay: Example 1: pot test, treated winter wheat seed with 5 adult slugs per pot, 14 days
Procedure, shortened: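 Fludioxonil-disinfected winter wheat seed (Kampa, 40 per pot) sown on quartz sand over potting soil with 5 adult slugs per pot; ±15° C., ±90% RH, 12 h light/12 h dark, 4 replicates. Damaged seeds, plants, dead slugs and fecal pellets counted up to day 14; F-tests and Student-tests.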

[2] = system: Grey field slug (Deroceras reticulatum); assay: Example 3:  trial oilseed rape, treated seed, 5 slugs per plot; conditions: doses of 10.4 and 20.8 ml per kg seed
Text: The compounds and doses used are described in table 12.
Trial Data Cultivaton • Location: Glasshouse • Plots consist of: One earthenware pot, diameter 20 cm, height 18 cm • Trial medium: 7 cm of peat based potting compost, covered with silversand • Cultivar: Talent (00) • Thousand seed weight: 7.0 g • Seed treatments: Carried out on 12 Mar. 2004. The fungicide treatment was 4 g a.i. TMTD per kg seed • Sowing date: 9 Apr. 2004 • Number of seeds per pot: 40 • Experimental layout: Randomised block design • Number of replicates: 4 (I to IV), Annex 1 • Temperature during cultivation: 16 hours 20° C., 8 hours 15° C. Trial • Location: Laboratory • Starting date: 20 Apr. 2004 • Slug species: Grey field slug (Deroceras reticulatum). The slugs were collected from the field and only healthy individuals were used. • Number of slugs per plot: 5 • Temperature during trial: ±18° C. • Relative humidity during trial: ±90% Assessment
After starting the trial, assessments were made on 21, 23 and 26 April. At each assessment, the total numbers of plants, the numbers of attacked plants, the numbers of dead slugs and the numbers of fecal pellets were counted. […] In addition, the numbers of normal plants were counted on 23 and 26 April and the fresh aboveground plant weight per plot was assessed on 27 April. […]
Data were analysed using analysis of variance and Student's t-distribution with the PPAIR procedure.

[3] = system: Winter wheat (Kampa race) seeds; assay: Seed germination test of treated winter wheat seeds (rolled in paper); conditions: 3x50 seeds, 6 days at 22° C.
Procedure, shortened: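 Seeds were disinfected with fludioxonil-containing Beret Gold (2 ml per kg seed) and coated with Sepiret® for formulations unsuitable for coating. Germination of 3×50 seeds rolled in paper was scored after 6 days at continuous 22° C. under a 16 hours light regime.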

[4] = system: Deroceras reticulatum (grey field slug); assay: Example 2: pot re-test, treated winter wheat seed with 5 adult slugs per pot, 7 days; conditions: for number of damaged seeds relative to the untreated seed: two days after the start
Text: Based on the results of the experiment described in Example 1, a selection was made from the various test numbers of that experiment for re-testing, partly to confirm the conclusions of that experiment and to test the unexpected outcome of some test compounds.
The selection of test numbers (Test No.) used in the present experiment relative to those of the experiment described in Example 1 is shown in Table 7.
The same seeds as described in Example 1 were sown in earthenware pots with an internal diameter of 20 cm and a height of 18 cm, filled with 7 cm of potting soil (Trio BV, Weesp, The Netherlands) and with a top 2 cm of white quartz sand. A total of 40 winter wheat seeds was placed in each pot, in a pattern of concentric circles on top of the quartz sand, the germ of the seed facing upwards. To each pot a total of 5 adult specimens of the test slug Deroceras reticulatum (grey field slug) were added. The pots were incubated at 18-19° C. with a relative humidity of ±95% and light regime of ±18 hours light/6 hours dark, without artificial lighting. The pots were not irrigated overhead. In total, 4 parallel tests were performed for each test.
The number of damaged seeds was, the number of plants present (germinated and not eaten or damaged by the slugs), the number of dead slugs and of the number of fecal pellets were determined after 2, 3 and 7 days following the addition of the slugs.
The data were statistically analysed by using F-tests (α=0.05) and pair-wise Student-tests.

[5] = 2 ml formulated per kg seed, 2 days after sowing
[6] = 2 ml formulated per kg seed, 3 days after sowing
[7] = 2 ml formulated per kg seed, 7 days after sowing
[8] = 2 ml formulated per kg seed, 10 days after sowing
[9] = 2 ml formulated per kg seed, 14 days after sowing
[10] = 10 ml formulated per kg seed, 2 days after sowing
[11] = 10 ml formulated per kg seed, 3 days after sowing
[12] = 10 ml formulated per kg seed, 7 days after sowing
[13] = 10 ml formulated per kg seed, 10 days after sowing
[14] = 10 ml formulated per kg seed, 14 days after sowing
[15] = Example 2, 2 ml formulated per kg seed, 2 days after sowing
[16] = Example 2, 2 ml formulated per kg seed, 3 days after sowing
[17] = Example 2, 2 ml formulated per kg seed, 7 days after sowing
[18] = Example 2, after 2, 3 and 7 days
[19] = Example 2, 10 ml formulated per kg seed, 2 days after sowing
[20] = Example 2, 10 ml formulated per kg seed, 3 days after sowing
[21] = Example 2, 10 ml formulated per kg seed, 7 days after sowing

N#CN=C1SCCN1Cc1ccc(Cl)nc1 [thiacloprid, N-[3-(6-chloropyridin-3-ylmethyl)thiazolidin-2-ylidene]cyanamide]
number of utilizable plants after 14 days ([1]; 2 ml formulated per kg seed): 28.8
percentage of damaged seeds after 14 days ([1]; 2 ml formulated per kg seed): 13%
Mean number of damaged seeds per pot [1, 5]: 1.3
Mean number of dead slugs per pot [1, 5]: 0
Mean number fecal pellets per pot [1, 6]: 14
Mean number of damaged seeds per pot [1, 6]: 3.3
Mean number of dead slugs per pot [1, 6]: 0.3
Mean number of plants present per pot [1, 6]: 6.3
Mean number fecal pellets per pot [1, 7]: 23
Mean number of damaged seeds per pot [1, 7]: 7.5
Mean number of dead slugs per pot [1, 7]: 0.5
Mean number of plants present per pot [1, 7]: 27.8
Mean number fecal pellets per pot [1, 8]: 17
Mean number of damaged seeds per pot [1, 8]: 5.5
Mean number of dead slugs per pot [1, 8]: 0.5
Mean number of plants present per pot [1, 8]: 28.5
Mean number fecal pellets per pot [1, 9]: 21
Mean number of damaged seeds per pot [1, 9]: 5.3
Mean number of dead slugs per pot [1, 9]: 0.8
Mean number of plants present per pot [1, 9]: 29.3
number of utilizable plants after 14 days ([1]; 10 ml formulated per kg seed): 34.5
percentage of damaged seeds after 14 days ([1]; 10 ml formulated per kg seed): 8%
Mean number of damaged seeds per pot [1, 10]: 0.5
Mean number of dead slugs per pot [1, 10]: 0
Mean number fecal pellets per pot [1, 11]: 5
Mean number of damaged seeds per pot [1, 11]: 1.5
Mean number of dead slugs per pot [1, 11]: 0
Mean number of plants present per pot [1, 11]: 10.5
Mean number fecal pellets per pot [1, 12]: 8
Mean number of damaged seeds per pot [1, 12]: 3.3
Mean number of dead slugs per pot [1, 12]: 0
Mean number of plants present per pot [1, 12]: 32.8
Mean number fecal pellets per pot [1, 13]: 7
Mean number of damaged seeds per pot [1, 13]: 3.3
Mean number of dead slugs per pot [1, 13]: 0.3
Mean number of plants present per pot [1, 13]: 34.0
Mean number fecal pellets per pot [1, 14]: 9
Mean number of damaged seeds per pot [1, 14]: 3.3
Mean number of dead slugs per pot [1, 14]: 0.3
Mean number of plants present per pot [1, 14]: 34.8
damaged seeds relative to untreated control seed ([1]; Example 1, 2 or 10 ml per kg of seed, at each observation (after 2 days only 10 ml)): less damaged seeds than the untreated control seed
protection of the wheat against slugs (conclusion) ([1]; Example 1, already at a low dose of 2 ml): good protection of the wheat against slugs
fecal pellets relative to the untreated seed ([1]; Example 1, at each dosage and at each observation): large and significant reduction in the number of fecal pellets; also recorded: significantly less fecal pellets
plants present and utilizable plants relative to the untreated seed ([1]; Example 1, both 2 and 10 ml per kg of seed, after 7 days): significantly more plants present and utilizable plants
comparison with imidacloprid (fecal pellets, damaged seeds, plants present, utilizable plants) ([1]; Example 1, two weeks after the start): scored surprisingly better than the related compound imidacloprid
damage (conclusion) [2]: decreases the damage
Percentage germinated ([3]; 2 ml formulated per kg seed): 73%
Percentage germinated ([3]; 10 ml formulated per kg seed): 58%
result of seed treatment against slugs (conclusion) ([4]; Example 2): good results
percentage of damaged seeds after 7 days ([4]; Example 2, 2 ml formulated per kg seed): 14%
Mean number of damaged seeds per pot [4, 15]: 3.5
Mean number of dead slugs per pot [4, 15]: 0
Mean number of damaged seeds per pot [4, 16]: 4.5
Mean number of dead slugs per pot [4, 16]: 0
Mean number of damaged seeds per pot [4, 17]: 5.8
Mean number of dead slugs per pot [4, 17]: 0.3
number of fecal pellets per pot relative to the untreated control [4, 18]: significant reduction in the number of fecal pellets
plants present relative to the untreated seed [4, 18]: significantly more plants present
number of damaged seeds relative to the untreated seed ([4]; Example 2): significant reduction in the number of damaged seeds
Mean number of fecal pellets per pot ([4]; dosage 2 ml, 2 days): 8
Mean number of plants present per pot ([4]; dosage 2 ml, 2 days): 12.5
Mean number of fecal pellets per pot ([4]; dosage 2 ml, 3 days): 14
Mean number of plants present per pot ([4]; dosage 2 ml, 3 days): 24.0
Mean number of fecal pellets per pot ([4]; dosage 2 ml, 7 days): 17
Mean number of plants present per pot ([4]; dosage 2 ml, 7 days): 29.5
number of utilizable plants after 7 days ([4]; dosage 2 ml, 7 days): 23.5

abamectine
number of utilizable plants after 14 days ([1]; 2 ml formulated per kg seed): 0.8
percentage of damaged seeds after 14 days ([1]; 2 ml formulated per kg seed): 93%
Mean number of damaged seeds per pot [1, 5]: 3.8
Mean number of dead slugs per pot [1, 5]: 0
Mean number fecal pellets per pot [1, 6]: 43
Mean number of damaged seeds per pot [1, 6]: 14.3
Mean number of dead slugs per pot [1, 6]: 0
Mean number of plants present per pot [1, 6]: 6.3
Mean number fecal pellets per pot [1, 7]: 119
Mean number of damaged seeds per pot [1, 7]: 35.8
Mean number of dead slugs per pot [1, 7]: 0
Mean number of plants present per pot [1, 7]: 0
Mean number fecal pellets per pot [1, 8]: 133
Mean number of damaged seeds per pot [1, 8]: 35.5
Mean number of dead slugs per pot [1, 8]: 0.3
Mean number of plants present per pot [1, 8]: 0.8
Mean number fecal pellets per pot [1, 9]: 140
Mean number of damaged seeds per pot [1, 9]: 37.0
Mean number of dead slugs per pot [1, 9]: 0.3
Mean number of plants present per pot [1, 9]: 0.8
number of utilizable plants after 14 days ([1]; 10 ml formulated per kg seed): 9.0
percentage of damaged seeds after 14 days ([1]; 10 ml formulated per kg seed): 61%
Mean number of damaged seeds per pot [1, 10]: 1.5
Mean number of dead slugs per pot [1, 10]: 0.3
Mean number fecal pellets per pot [1, 11]: 15
Mean number of damaged seeds per pot [1, 11]: 3.3
Mean number of dead slugs per pot [1, 11]: 0.5
Mean number of plants present per pot [1, 11]: 3.8
Mean number fecal pellets per pot [1, 12]: 89
Mean number of damaged seeds per pot [1, 12]: 21.0
Mean number of dead slugs per pot [1, 12]: 1.3
Mean number of plants present per pot [1, 12]: 6.0
Mean number fecal pellets per pot [1, 13]: 106
Mean number of damaged seeds per pot [1, 13]: 23.8
Mean number of dead slugs per pot [1, 13]: 1.3
Mean number of plants present per pot [1, 13]: 8.8
Mean number fecal pellets per pot [1, 14]: 114
Mean number of damaged seeds per pot [1, 14]: 24.3
Mean number of dead slugs per pot [1, 14]: 1.5
Mean number of plants present per pot [1, 14]: 9.0
damaged seeds relative to the untreated control ([1]; Example 1, 10 ml/kg, after 3, 7 and 14 days): significantly less damaged seeds
protection / slug controlling effect (conclusion) ([1]; Example 1, winter wheat seed treatment, dosages tested): no sufficient protection to the plants
Percentage germinated ([3]; 2 ml formulated per kg seed): 47%
Percentage germinated ([3]; 10 ml formulated per kg seed): 2%
number of plants present relative to untreated ([4]; Example 2): no significantly different results
phytotoxic effect on the seeds ([4]; Example 2): phytotoxic effect on the seeds
result of seed treatment against slugs (conclusion) ([4]; Example 2): does not give the desired effect
percentage of damaged seeds after 7 days ([4]; Example 2, 10 ml formulated per kg seed): 31%
Mean number of damaged seeds per pot [4, 19]: 2.8
Mean number of dead slugs per pot [4, 19]: 0
Mean number of damaged seeds per pot [4, 20]: 6.0
Mean number of dead slugs per pot [4, 20]: 0.3
Mean number of damaged seeds per pot [4, 21]: 12.5
Mean number of dead slugs per pot [4, 21]: 0.8
number of damaged seeds relative to the untreated seed ([4]; Example 2): significant reduction in the number of damaged seeds
Mean number of fecal pellets per pot ([4]; dosage 10 ml, 2 days): 11
Mean number of plants present per pot ([4]; dosage 10 ml, 2 days): 0.3
Mean number of fecal pellets per pot ([4]; dosage 10 ml, 3 days): 30
Mean number of plants present per pot ([4]; dosage 10 ml, 3 days): 1.3
Mean number of fecal pellets per pot ([4]; dosage 10 ml, 7 days): 69
Mean number of plants present per pot ([4]; dosage 10 ml, 7 days): 4.5
number of utilizable plants after 7 days ([4]; dosage 10 ml, 7 days): 2.0
